# From paper PMC11855207, “Synthesis and Evaluation of Aromatic A-Ring 23-Oxavitamin D3 Analogues as Hedgehog Pathway Inhibitors” (International Journal of Molecular Sciences, 2025)
# Legend:
# [1] = test system: Hh signaling (Gli1 mRNA) in SuFu−/− C3H10T1/2 cells; assay: Gli1 down-regulation in SuFu−/− C3H10T1/2 cells; assay type: cell-based, mouse; conditions: 24 h
# ASZ001 cells = assay: Anti-proliferation (MTS) in ASZ001 cells; assay type: cell-based; conditions: Mus musculus, 48 h incubation, mean ± SEM
# [2] = test system: primary Ptch-CKO MB cells; assay: Anti-proliferation (MTS) in primary Ptch-CKO MB cells; assay type: cell-based; conditions: Mus musculus, 48 h incubation, mean ± SEM
# Experimental: Ptch-CKO MB cells, derived from a conditional Patched knockout mouse, lack Ptch-like ASZ001 cells. Consequently, the inhibitory effect of the compound on Ptch-CKO MB cells directly reflects its suppression of the canonical Hh signaling pathway. Cell viability was assessed by MTS proliferation assay kit (Promega, Madison, WI, USA) according to the manufacturer’s protocol. Culture conditions and experimental protocols to determine GI50 values in the primary murine Ptch-CKO MB cells were as previously described.
# [3] = test system: Hh signaling pathway (Gli1 mRNA) in C3H10T1/2 cells; assay: Gli1 mRNA down-regulation (qPCR) in OHC-stimulated C3H10T1/2 cells; assay type: cell-based, mouse; conditions: Mus musculus; for mrna remaining at 5 µM: C3H 10T1/2, 5 μM with OHCs 5 μM, 24 h, relative Gli1 mRNA levels compared to OHCs (set to 100%); for IC50: C3H 10T1/2, mean ± SEM
# Experimental: (§1) The VD3 analogues were initially assessed for their ability to inhibit the Hh signaling pathway by evaluating the effects on endogenous Gli1 mRNA levels at a single concentration (5 μM) co-administration of oxysterols (OHCs; 20(S)-hydroxycholesterol, 22(S)-hydroxycholesterol at 5 μM each) in C3H10T1/2 cells, an Hh-dependent mouse embryonic fibroblast (MEF) cell line. […] VD3 derivatives may retain some VDR agonistic activity, thereby compromising the selectivity of these compounds as Hh inhibitors. The selectivity profile of the analogues for Hh inhibition, compared to typical VDR activation, was assessed by measuring the ability to up-regulate Cyp24a1 mRNA levels in the same cellular system and by evaluating their binding to VDR using a fluorescence polarization-based competition assay (Table 1).
# (§2) Mouse embryonic fibroblast cell line (C3H10T1/2, wild-type, VDR^−/−, SuFu^−/−), mouse keratinocyte cell line (ASZ001), and human embryonic kidney cell line (HEK293T) were purchased from China Center for Type Culture Collection (CCTCC; Wuhan, Hubei, China) and cultured under standard protocols. […] Therefore, they can be used to assess the inhibitory strength of the Hh signaling and the selectivity of the VDR signaling. VDR^−/− and SuFu^−/− C3H10T1/2 cells were used to study compounds selectivity for Hh and VDR signaling. If compounds regulate Hh signaling independently of VDR, their ability to down-regulate Gli1 mRNA expression should be abolished in SuFu^−/− C3H10T1/2 cells. […] The loss of Ptch in ASZ001 cells […], so down-regulating Gli1 reflects direct Smo inhibition by the compound. Comparing results from ASZ001 and C3H10T1/2 cells highlights the compound’s inhibition of the Hh signaling pathway.
# (§3) RNA isolation in C3H10T1/2 cells was performed in 24-well plates (50,000 cells plated; TRIZOL Reagent); in ASZ001, cells were done in 35 mm dishes (300,000 cells plated; TRIZOL Reagent). cDNA synthesis was performed utilizing the SweScript All-in-One RT SuperMix Kit (Servicebio, Wuhan, China) per the manufacturer’s instructions on a BioRad S1000 Thermal Cycler (Hercules, CA, USA). qPCR (Hh signaling pathway and VDR) analysis of target genes was performed on Step OnePlus (ABI) using the Taqman Gene Expression Assays: mouse ActB (Mm00607939_s1), mouse GLI1 (Mm00494645_ml), mouse PTCH1(Mm00436026_m1), and mouse CYP24A1 (Mm00487244_ml). Relative gene expression levels were computed via the ΔΔCt method. ActinB mRNA expression levels of all samples were normalized to DMSO control ActinB mRNA levels (vehicle; set at 1.00). […] The mRNA expression levels from drug-treated samples were compared to OHCs levels (Gli1, PTCH) and DMSO control (Cyp24A1).
# [4] = test system: Cyp24A1 mRNA in VDR−/− C3H10T1/2 cells; assay: Cyp24A1 up-regulation in VDR−/− C3H10T1/2 cells; assay type: cell-based, mouse; conditions: 24 h
# recombinant VDR = target: T1, recombinant VDR (Homo sapiens, UniProt P11473); assay: VDR binding, fluorescence polarization-based competition assay (PolarScreen VDR Competitor Assay Red); conditions: compounds evaluated at 100 μM
# T1 construct: purchased Thermo Fisher Scientific
# T1 sequence (P11473 1-427): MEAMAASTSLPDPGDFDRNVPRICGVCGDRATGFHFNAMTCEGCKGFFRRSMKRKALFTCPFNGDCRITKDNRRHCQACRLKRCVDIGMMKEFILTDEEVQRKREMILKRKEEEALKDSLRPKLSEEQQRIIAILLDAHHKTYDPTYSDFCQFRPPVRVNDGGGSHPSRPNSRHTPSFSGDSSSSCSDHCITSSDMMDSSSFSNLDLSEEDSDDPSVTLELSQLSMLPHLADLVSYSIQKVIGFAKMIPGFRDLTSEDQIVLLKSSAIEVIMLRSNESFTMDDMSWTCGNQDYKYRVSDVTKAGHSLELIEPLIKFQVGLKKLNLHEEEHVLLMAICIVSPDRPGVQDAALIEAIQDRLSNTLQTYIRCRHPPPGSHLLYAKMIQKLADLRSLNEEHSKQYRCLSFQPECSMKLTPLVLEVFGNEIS
# Experimental: as §1
# VDR binding assay was performed using a PolarScreen VDR Competitor Assay Red kit (Thermo Fisher Scientific, Carlsbad, CA, USA) per the manufacturer’s instructions. Compounds were evaluated at 100 μM in 2.5% final DMSO in triplicate. Calcitriol is utilized as a positive control for VDR binding.
# [5] = test system: VDR signaling (Cyp24A1 mRNA) in C3H10T1/2 cells; assay: Cyp24A1 mRNA up-regulation (qPCR) in C3H10T1/2 cells; assay type: cell-based, mouse; conditions: Mus musculus, C3H 10T1/2, 5 μM with OHCs 5 μM, 24 h, relative to DMSO (set to 1.0)
# Experimental: as §1, §2, §3
# [6] = test system: Hh signaling pathway (Ptch mRNA) in C3H10T1/2 cells; assay: Ptch mRNA down-regulation (qPCR) in C3H10T1/2 cells; assay type: cell-based; conditions: Mus musculus, C3H 10T1/2; C3H10T1/2 cells; mean ± SEM; read-out: Ptch IC50
# full-length human Smo = target: T2, full-length human Smo (Homo sapiens, UniProt Q99835); assay: BODIPY-Cyc displacement (flow cytometry) in HEK293T cells overexpressing Smo; assay type: binding; conditions: up to 10 μM
# T2 construct: HEK293T cells overexpressing full-length human Smo was evaluated; expressed in transfected cells; host or cells: HEK293T
# Hh signaling pathway = assay: Anti-Hh activity in combination with vismodegib; assay type: cell-based; conditions: combined with vismodegib 100 nM
# [7] = test system: Hh signaling pathway (Gli1 mRNA) in ASZ001 cells; assay: Gli1 mRNA down-regulation (qPCR) in ASZ001 cells; assay type: cell-based; conditions: Mus musculus; ASZ001 cells; mean ± SEM; read-out: Gli1 IC50
# [8] = test system: Cyp24A1 mRNA in SuFu−/− C3H10T1/2 cells; assay: Cyp24A1 up-regulation in SuFu−/− C3H10T1/2 cells; assay type: cell-based, mouse; conditions: 24 h
# [9] = test system: Hh signaling (Gli1 mRNA) in VDR−/− C3H10T1/2 cells; assay: Gli1 down-regulation in VDR−/− C3H10T1/2 cells; assay type: cell-based, mouse; conditions: 24 h
# [10] = test system: VDR signaling (Cyp24A1 mRNA) in ASZ001 cells; assay: Cyp24A1 mRNA expression (qPCR) in ASZ001 cells; assay type: cell-based; conditions: Mus musculus; ASZ001 cells; 5 μM, 24 h; DMSO set to 1.0; read-out: Cyp24A1 mRNA levels relative to DMSO
# Smo protein = target: T3, Smo protein (Homo sapiens, UniProt Q99835); assay: Surface plasmon resonance (SPR) binding to Smo; conditions: 2.5, 5, 10 μM in PBS, 4 °C
# T3 construct: purchased ACRO Biosystems SMO-H52P3
# Experimental: Surface plasmon resonance (SPR) was used to evaluate the binding capacity of the compounds 3j and 4i to Smo. […] To investigate the binding sites of the analogues on Smo, the ability of 3j and 4i to displace BODIPY-Cyc from HEK293T cells overexpressing full-length human Smo was evaluated. […] Smo contains two small molecule binding sites, one located in the extracellular cysteine-rich domain (CRD) and the other in the 7-transmembrane helix (7-TM) region. […] Endogenous oxidized sterols can regulate Smo activity by binding CRD [27]. These analogues, as mimetics of steroid hormones, may interact with Smo by binding to CRD.
# SPR analysis was conducted as described in papers. The analyses of interactions between Smo protein (ACRO Biosystems, SMO-H52P3, Newark, DE, USA) and compounds at different concentrations (2.5, 5, 10 μM) was performed in PBS and a flow rate of 2 μL/s at 4 °C. The sensor chip surface was regenerated by injection of 0.5% SDS: Glycine-HCl (pH = 2.0) = 1:1 solution.
# T2 sequence (Q99835 28-787): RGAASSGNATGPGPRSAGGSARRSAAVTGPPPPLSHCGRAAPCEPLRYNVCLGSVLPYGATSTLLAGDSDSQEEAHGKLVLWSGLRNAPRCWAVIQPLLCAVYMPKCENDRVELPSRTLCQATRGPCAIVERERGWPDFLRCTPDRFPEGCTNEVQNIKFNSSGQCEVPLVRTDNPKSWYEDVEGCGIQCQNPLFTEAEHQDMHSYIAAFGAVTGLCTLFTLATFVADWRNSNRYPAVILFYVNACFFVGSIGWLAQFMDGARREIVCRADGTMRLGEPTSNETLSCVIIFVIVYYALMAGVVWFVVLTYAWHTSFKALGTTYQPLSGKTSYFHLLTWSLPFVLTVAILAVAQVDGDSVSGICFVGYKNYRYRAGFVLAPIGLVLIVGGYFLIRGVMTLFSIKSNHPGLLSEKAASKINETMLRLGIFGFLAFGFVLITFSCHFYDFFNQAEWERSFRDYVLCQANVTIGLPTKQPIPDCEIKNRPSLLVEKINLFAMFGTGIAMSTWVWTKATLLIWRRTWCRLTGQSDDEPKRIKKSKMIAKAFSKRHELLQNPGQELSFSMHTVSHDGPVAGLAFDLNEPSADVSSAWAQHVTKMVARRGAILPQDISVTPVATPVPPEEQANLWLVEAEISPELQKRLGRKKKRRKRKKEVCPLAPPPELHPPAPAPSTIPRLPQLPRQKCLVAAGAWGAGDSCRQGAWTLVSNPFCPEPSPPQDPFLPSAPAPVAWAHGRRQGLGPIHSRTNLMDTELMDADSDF
# T3 sequence (Q99835 28-787): as above
SMILES,Ability to inhibit Hh signaling (Gli1 down-regulation) versus wild-type cells [1],GI50 (ASZ001 cells) [µM],GI50 [2] [µM],mrna remaining at 5 µM [3] [%],IC50 [3] [µM],Ability to up-regulate Cyp24A1 versus wild-type cells [4],VDR Binding (recombinant VDR) [µM],fold induction at 5 µM [5],IC50 [6] [µM],Displacement of BODIPY-Cyc from Smo (full-length human Smo),Change of IC50 value in combination with vismodegib (Hh signaling pathway),IC50 [7] [µM],Ability to up-regulate Cyp24A1 versus wild-type cells [8],Ability to inhibit Hh signaling (Gli1 down-regulation) versus wild-type cells [9],fold induction at 5 µM [10],SPR interaction with Smo (Smo protein),Displacement of BODIPY-Cyc from Smo (full-length human Smo; listed as Cyc)
"CS(=O)(=O)c1ccc(C(=O)Nc2ccc(Cl)c(-c3ccccn3)c2)c(Cl)c1 [Vismodegib, reference compound]",no activity,2.1,0.78 ± 0.1,,,,,,,,,,,,,,
CC(C)COC[C@@H](C)[C@H]1CC[C@H]2[C@@H](OC(=O)c3cc(O)cc(O)c3)CCC[C@]12C [Compound 3j],mostly abolished,13.4 ± 1.4,6.7 ± 0.8,2.4 ± 0.4,1.8 ± 0.3,significantly reduced,>100,11.4 ± 1.3,3.6 ± 0.5,neither 3j nor 4i affected BODIPY-Cyc-Smo binding interactions,did not change the IC50 value,5.5 ± 0.7,significantly reduced,modestly reduced,2.1 ± 0.3,exhibited interactions with Smo,
CC(C)COC[C@@H](C)[C@H]1CC[C@H]2[C@@H](OC(=O)c3ccc(O)cc3)CCC[C@]12C [Compound 3k],,> 20,> 10,7.3 ± 1.9,3.8 ± 0.4,,>100,32.1 ± 3.2,10.3 ± 1.1,,,6.2 ± 1.1,,,5.8 ± 0.3,,
C[C@H](COCC(C)(C)O)[C@H]1CC[C@H]2[C@@H](OC(=O)c3cc(O)cc(O)c3)CCC[C@]12C [Compound 4i],mostly abolished,5.8 ± 0.8,2.2 ± 0.3,1.7 ± 0.3,1.1 ± 0.1,significantly reduced,>100,129 ± 16.8,1.9 ± 0.3,neither 3j nor 4i affected BODIPY-Cyc-Smo binding interactions,did not change the IC50 value,1.8 ± 0.3,significantly reduced,modestly reduced,87.4 ± 10.6,exhibited interactions with Smo,
"CC1=C2C[C@H]3[C@@H](CC=C4C[C@@H](O)CC[C@@]43C)[C@@H]2CC[C@]12O[C@@H]1C[C@H](C)CN[C@H]1[C@H]2C [Cyclopamine, reference compound]",,,,,,,,,,displaced BODIPY-Cyc in a concentration-dependent manner,,,,,,,displaced BODIPY-Cyc in a dose-dependent manner
